Reference: ChEMBL document CHEMBL4229500, “Iodine-mediated cyclization of cannabigerol (CBG) expands the cannabinoid biological and chemical space” (Bioorg Med Chem, 2018)

Key:
Type in all cases: cell-based
[1] = molecular target: T1, Transient receptor potential cation channel subfamily V member 2 (Rattus norvegicus) (UniProt Q9WUD2); test: Agonist activity at rat TRPV2 expressed in HEK293 cells assessed as increase in intracellular calcium level by Fluo-4-AM dye based fluorescence assay relative to ionomycin
T1 sequence (whole entry): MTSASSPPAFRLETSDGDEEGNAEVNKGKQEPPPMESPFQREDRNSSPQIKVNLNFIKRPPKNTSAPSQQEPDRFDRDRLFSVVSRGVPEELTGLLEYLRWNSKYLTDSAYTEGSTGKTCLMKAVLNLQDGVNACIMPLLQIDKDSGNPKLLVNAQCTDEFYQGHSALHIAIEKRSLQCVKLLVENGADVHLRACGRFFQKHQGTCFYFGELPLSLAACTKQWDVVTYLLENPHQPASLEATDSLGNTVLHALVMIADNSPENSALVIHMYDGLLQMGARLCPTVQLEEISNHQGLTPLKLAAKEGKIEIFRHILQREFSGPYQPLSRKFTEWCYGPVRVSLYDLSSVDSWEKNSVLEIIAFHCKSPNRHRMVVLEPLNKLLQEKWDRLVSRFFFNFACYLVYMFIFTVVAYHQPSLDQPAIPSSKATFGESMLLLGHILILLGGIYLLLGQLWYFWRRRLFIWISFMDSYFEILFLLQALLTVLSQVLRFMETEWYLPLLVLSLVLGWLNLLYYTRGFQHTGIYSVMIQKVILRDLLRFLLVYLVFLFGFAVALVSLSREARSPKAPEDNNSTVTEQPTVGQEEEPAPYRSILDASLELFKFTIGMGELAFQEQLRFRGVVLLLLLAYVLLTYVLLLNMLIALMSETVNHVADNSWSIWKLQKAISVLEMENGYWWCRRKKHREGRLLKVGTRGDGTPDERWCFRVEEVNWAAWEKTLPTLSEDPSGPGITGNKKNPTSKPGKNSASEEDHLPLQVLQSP

[2] = molecular target: T2, Transient receptor potential cation channel subfamily V member 1 (Homo sapiens, UniProt Q8NER1); test: Antagonist activity at human TRPV1 expressed in HEK293 cells assessed as inhibition of capsaicin-induced increase in intracellular calcium level pretreated for 5 mins followed by capsaicin addition by Fluo-4-AM dye based fluorescence assay
[3] = molecular target: Transient receptor potential cation channel subfamily M member 8 (Rattus norvegicus, UniProt Q8R455); test: Antagonist activity at rat TRPM8 expressed in HEK293 cells assessed as inhibition of icilin-induced increase in intracellular calcium level pretreated for 5 mins followed by icilin addition by Fluo-4-AM dye based fluorescence assay
[4] = molecular target: T3, Transient receptor potential cation channel, subfamily V, member 3 (Rattus norvegicus, UniProt E9PU00); test: Agonist activity at […] expressed in HEK293 cells assessed as increase in intracellular calcium level by Fluo-4-AM dye based fluorescence assay
T3 sequence (E9PU00 whole entry): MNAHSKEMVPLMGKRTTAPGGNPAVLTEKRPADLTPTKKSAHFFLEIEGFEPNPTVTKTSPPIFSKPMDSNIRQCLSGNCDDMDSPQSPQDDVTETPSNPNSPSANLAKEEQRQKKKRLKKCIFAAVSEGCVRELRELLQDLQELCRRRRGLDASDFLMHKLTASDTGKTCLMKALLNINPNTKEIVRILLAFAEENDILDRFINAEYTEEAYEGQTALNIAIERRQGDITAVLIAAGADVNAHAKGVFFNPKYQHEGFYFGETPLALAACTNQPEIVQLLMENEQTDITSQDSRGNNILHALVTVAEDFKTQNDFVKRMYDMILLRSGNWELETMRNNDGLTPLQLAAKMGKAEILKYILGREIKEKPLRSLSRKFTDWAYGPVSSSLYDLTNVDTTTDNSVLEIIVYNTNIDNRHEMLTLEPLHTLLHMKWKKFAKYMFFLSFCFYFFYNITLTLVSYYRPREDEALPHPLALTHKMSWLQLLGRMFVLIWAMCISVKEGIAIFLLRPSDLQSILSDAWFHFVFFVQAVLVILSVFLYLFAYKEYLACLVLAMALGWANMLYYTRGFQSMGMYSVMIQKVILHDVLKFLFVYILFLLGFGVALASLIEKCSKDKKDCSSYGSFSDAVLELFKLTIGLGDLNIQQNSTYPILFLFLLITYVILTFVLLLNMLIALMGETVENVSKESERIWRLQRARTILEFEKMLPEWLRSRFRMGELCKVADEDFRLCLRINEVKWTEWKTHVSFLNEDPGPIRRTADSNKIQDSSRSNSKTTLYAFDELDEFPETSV

[5] = molecular target: T3, Transient receptor potential cation channel, subfamily V, member 3; test: Antagonist activity at […] expressed in HEK293 cells assessed as inhibition of thymol-induced increase in intracellular calcium level pretreated for 5 mins followed by thymol addition by Fluo-4-AM dye based fluorescence assay
[6] = molecular target: T4, Transient receptor potential cation channel subfamily A member 1 (Rattus norvegicus, UniProt Q6RI86); test: Antagonist activity at rat TRPA1 expressed in HEK293 cells assessed as inhibition of AITC-induced increase in intracellular calcium level pretreated for 5 mins followed by AITC addition by fluo-4-AM dye based fluorescence assay
[7] = molecular target: T5, Transient receptor potential cation channel subfamily V member 2 (Rattus norvegicus, UniProt Q9WUD2); test: Antagonist activity at rat TRPV2 expressed in HEK293 cells assessed as inhibition of LPC-induced increase in intracellular calcium level pretreated for 5 mins followed by LPC addition by Fluo-4-AM dye based fluorescence assay
T5 sequence (Q9WUD2 whole entry): T1 sequence (whole entry)

[8] = molecular target: T2, Transient receptor potential cation channel subfamily V member 1; test: Agonist activity at human TRPV1 expressed in HEK293 cells assessed as increase in intracellular calcium level by Fluo-4-AM dye based fluorescence assay relative to ionomycin
[9] = molecular target: Transient receptor potential cation channel subfamily A member 1 (Rattus norvegicus) (UniProt Q6RI86); test: Agonist activity at rat TRPA1 expressed in HEK293 cells assessed as increase in intracellular calcium level by fluo-4-AM dye based fluorescence assay relative to AITC
[10] = molecular target: T2, Transient receptor potential cation channel subfamily V member 1; test: Agonist activity at human TRPV1 expressed in HEK293 cells assessed as increase in intracellular calcium level by Fluo-4-AM dye based fluorescence assay
[11] = molecular target: T4, Transient receptor potential cation channel subfamily A member 1; test: Agonist activity at rat TRPA1 expressed in HEK293 cells assessed as increase in intracellular calcium level by fluo-4-AM dye based fluorescence assay
[12] = molecular target: T6, Transient receptor potential cation channel subfamily V member 4 (Rattus norvegicus, UniProt Q9ERZ8); test: Antagonist activity at […] expressed in HEK293 cells assessed as inhibition of GSK1016790A-induced increase in intracellular calcium level pretreated for 5 mins followed by GSK1016790A addition by Fluo-4-AM dye based fluorescence assay
[13] = molecular target: Transient receptor potential cation channel subfamily V member 4 (Rattus norvegicus) (UniProt Q9ERZ8); test: Agonist activity at rat TRPV4 expressed in HEK293 cells assessed as increase in intracellular calcium level by Fluo-4-AM dye based fluorescence assay relative to ionomycin
[14] = molecular target: T7, Transient receptor potential cation channel, subfamily V, member 3 (Rattus norvegicus) (UniProt E9PU00); test: Agonist activity at […] expressed in HEK293 cells assessed as increase in intracellular calcium level by Fluo-4-AM dye based fluorescence assay relative to ionomycin
T7 sequence (whole entry): T3 sequence (E9PU00 whole entry)

[15] = molecular target: T5, Transient receptor potential cation channel subfamily V member 2; test: Agonist activity at rat TRPV2 expressed in HEK293 cells assessed as increase in intracellular calcium level by Fluo-4-AM dye based fluorescence assay
[16] = molecular target: T6, Transient receptor potential cation channel subfamily V member 4; test: Agonist activity at rat TRPV4 expressed in HEK293 cells assessed as increase in intracellular calcium level by Fluo-4-AM dye based fluorescence assay

Transient receptor potential cation channel subfamily M member 8, sequence (Q8R455 whole entry): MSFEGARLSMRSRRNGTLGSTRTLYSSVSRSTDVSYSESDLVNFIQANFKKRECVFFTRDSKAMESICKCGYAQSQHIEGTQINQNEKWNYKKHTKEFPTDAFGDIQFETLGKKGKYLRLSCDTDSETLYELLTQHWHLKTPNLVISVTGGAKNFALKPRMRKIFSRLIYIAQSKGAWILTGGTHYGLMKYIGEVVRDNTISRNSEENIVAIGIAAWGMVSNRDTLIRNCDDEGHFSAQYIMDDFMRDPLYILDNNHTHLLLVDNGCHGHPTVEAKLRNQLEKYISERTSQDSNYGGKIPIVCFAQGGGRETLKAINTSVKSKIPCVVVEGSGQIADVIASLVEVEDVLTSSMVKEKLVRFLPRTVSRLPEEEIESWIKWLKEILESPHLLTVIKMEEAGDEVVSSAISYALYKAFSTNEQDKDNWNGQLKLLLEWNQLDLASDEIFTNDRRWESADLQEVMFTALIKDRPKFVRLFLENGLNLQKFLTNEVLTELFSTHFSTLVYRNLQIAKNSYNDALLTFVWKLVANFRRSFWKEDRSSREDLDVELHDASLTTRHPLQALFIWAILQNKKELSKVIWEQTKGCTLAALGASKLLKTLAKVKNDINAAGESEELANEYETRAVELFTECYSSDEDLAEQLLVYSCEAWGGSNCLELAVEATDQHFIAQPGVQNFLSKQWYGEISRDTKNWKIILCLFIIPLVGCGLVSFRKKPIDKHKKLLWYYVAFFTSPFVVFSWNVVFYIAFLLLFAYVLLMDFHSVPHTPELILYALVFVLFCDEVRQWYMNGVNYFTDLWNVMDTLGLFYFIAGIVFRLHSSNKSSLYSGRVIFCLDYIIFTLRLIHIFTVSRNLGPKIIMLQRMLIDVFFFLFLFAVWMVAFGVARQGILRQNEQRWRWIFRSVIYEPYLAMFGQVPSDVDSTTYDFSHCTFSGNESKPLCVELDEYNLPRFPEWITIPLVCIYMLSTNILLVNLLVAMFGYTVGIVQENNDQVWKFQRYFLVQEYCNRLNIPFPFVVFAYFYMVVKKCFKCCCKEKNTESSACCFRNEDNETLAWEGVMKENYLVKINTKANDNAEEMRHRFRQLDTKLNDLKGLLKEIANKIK
Transient receptor potential cation channel subfamily A member 1 (Rattus norvegicus), sequence (Q6RI86 whole entry): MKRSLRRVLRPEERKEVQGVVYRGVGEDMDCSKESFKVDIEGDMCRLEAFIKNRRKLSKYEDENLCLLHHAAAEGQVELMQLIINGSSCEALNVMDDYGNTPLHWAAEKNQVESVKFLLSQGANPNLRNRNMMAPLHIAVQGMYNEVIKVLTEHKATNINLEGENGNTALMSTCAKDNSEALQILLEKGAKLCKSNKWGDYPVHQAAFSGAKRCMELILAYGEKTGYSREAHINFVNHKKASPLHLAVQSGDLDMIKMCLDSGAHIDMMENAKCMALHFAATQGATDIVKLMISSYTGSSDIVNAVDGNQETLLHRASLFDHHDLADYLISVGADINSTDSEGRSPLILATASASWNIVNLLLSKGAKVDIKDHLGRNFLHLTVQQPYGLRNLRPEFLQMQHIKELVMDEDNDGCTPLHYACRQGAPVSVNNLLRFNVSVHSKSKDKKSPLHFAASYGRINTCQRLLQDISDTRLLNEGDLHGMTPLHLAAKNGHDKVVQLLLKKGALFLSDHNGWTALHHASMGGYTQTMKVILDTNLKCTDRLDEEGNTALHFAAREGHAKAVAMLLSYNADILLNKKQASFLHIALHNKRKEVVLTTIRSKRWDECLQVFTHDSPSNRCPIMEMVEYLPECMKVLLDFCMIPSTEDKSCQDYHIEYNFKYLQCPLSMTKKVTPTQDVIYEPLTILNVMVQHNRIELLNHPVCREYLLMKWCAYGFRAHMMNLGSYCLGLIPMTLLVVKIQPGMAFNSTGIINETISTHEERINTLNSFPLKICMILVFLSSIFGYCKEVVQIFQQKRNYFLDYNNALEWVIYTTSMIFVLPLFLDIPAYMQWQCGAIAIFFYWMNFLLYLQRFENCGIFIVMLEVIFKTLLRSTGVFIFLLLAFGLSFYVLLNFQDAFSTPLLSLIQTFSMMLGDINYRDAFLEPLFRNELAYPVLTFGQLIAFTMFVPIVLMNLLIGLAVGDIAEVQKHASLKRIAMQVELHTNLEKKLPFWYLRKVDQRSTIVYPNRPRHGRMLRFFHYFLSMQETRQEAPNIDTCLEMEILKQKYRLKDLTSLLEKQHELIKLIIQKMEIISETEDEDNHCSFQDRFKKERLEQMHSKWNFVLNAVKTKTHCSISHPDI
T4 sequence (Q6RI86 whole entry): as above
Transient receptor potential cation channel subfamily V member 4 (Rattus norvegicus), sequence (Q9ERZ8 whole entry): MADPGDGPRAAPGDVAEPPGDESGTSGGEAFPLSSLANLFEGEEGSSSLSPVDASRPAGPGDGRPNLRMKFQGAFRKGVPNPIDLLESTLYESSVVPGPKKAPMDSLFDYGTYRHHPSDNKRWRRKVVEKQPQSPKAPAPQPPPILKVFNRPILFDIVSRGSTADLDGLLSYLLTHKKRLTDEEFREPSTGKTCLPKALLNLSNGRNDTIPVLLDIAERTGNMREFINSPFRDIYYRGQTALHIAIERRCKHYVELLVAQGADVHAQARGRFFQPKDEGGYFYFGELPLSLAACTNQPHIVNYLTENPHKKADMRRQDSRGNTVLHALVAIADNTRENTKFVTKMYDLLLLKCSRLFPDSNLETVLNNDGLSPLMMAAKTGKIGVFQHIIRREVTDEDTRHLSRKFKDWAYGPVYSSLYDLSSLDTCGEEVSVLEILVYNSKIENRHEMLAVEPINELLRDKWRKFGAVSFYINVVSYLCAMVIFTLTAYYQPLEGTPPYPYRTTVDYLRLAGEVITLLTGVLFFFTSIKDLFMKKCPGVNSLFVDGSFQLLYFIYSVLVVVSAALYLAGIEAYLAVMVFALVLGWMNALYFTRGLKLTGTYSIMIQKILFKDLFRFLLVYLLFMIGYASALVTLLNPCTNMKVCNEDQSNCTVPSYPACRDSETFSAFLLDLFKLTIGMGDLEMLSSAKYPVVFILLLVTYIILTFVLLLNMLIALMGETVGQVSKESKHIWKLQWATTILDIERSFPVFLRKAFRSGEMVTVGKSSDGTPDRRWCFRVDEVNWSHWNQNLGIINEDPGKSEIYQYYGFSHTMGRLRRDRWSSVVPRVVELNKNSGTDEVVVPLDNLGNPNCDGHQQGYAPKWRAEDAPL
T6 sequence (Q9ERZ8 whole entry): as above
T2 sequence (Q8NER1 whole entry): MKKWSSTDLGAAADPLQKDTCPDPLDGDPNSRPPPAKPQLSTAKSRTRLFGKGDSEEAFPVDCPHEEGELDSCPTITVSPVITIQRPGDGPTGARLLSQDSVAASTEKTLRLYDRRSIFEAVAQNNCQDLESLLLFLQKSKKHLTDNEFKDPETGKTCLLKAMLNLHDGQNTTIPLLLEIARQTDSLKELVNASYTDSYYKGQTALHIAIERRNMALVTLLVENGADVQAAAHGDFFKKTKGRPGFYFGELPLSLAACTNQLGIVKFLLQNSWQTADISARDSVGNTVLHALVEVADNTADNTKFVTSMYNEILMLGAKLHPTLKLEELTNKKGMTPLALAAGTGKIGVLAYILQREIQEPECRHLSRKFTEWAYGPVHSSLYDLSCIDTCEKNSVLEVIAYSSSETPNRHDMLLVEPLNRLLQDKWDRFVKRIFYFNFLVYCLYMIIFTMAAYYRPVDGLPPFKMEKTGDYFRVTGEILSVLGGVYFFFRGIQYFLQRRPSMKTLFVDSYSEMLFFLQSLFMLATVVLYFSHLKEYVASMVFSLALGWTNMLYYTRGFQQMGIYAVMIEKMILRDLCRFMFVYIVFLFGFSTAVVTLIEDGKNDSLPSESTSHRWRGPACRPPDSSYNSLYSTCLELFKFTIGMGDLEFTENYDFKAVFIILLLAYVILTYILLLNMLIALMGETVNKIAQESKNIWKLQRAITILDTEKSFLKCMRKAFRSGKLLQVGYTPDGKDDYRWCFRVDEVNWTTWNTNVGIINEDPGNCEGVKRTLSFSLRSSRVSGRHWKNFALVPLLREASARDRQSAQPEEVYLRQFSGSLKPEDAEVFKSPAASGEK

SMILES | Efficacy [1] [%] | IC50 [2] [µM] | IC50 [3] [µM] | EC50 ([4]; read-out: EC50) [µM] | IC50 [5] [µM] | IC50 [6] [nM] | IC50 [7] [µM] | Efficacy [8] [%] | Efficacy [9] [%] | EC50 ([10]; read-out: EC50) [nM] | EC50 [11] [nM] | IC50 [12] [µM] | Efficacy [13] [%] | Efficacy [14] [%] | EC50 ([15]; read-out: EC50) [µM] | EC50 ([16]; hek293) | EC50 ([4]; hek293) | EC50 ([10]; hek293) | EC50 ([15]; hek293) | EC50 ([16]; read-out: EC50) [µM]
CCCCCc1cc(O)c2c(c1)O[C@@]1(C)CCCC(C)(C)[C@H]1C2 | 31.7 | 5.9 | 17.1 | 6.7 | 8 | 270 | > 100 | 48.5 | 98.5 | 2600 | 290 | 3.9 | < 10 | 17.5 | 5.8 | Not Active |  |  |  | 
CCCCCc1cc(O)c2c(c1)O[C@]1(C)CCCC(C)(C)[C@H]1C2 | 41.3 | > 100 | > 100 |  | > 50 | 260 | > 100 | < 10 | 95.2 |  | 230 | > 100 | < 10 | < 10 | 8.4 | Not Active | Not Active | Not Active |  | 
CCCCCc1cc(O)c2c(c1)OC(C)(CCCC(C)(C)c1ccc(C)cc1)CC2 (stereo unspecified) | < 10 | > 50 | > 100 |  | > 50 | 320 | 4.5 | < 10 | 120 |  | 350 | > 100 | 18 | < 10 |  |  | Not Active | Not Active | Not Active | 18
CCCCCc1cc(O)c2c(c1)O[C@]1(C)CC[C@@H](I)C(C)(C)[C@H]1C2 | < 10 | > 100 | 7.2 |  | > 50 | 4800 | 2.3 | < 10 | 90 |  | 2000 | > 100 | < 10 | < 10 |  | Not Active | Not Active | Not Active | Not Active | 
CCCCCc1cc(O)c2c(c1)O[C@]1(C2)[C@@H](C)CCCC1(C)C | 37.7 | 7.1 | > 50 |  | 12.8 | 450 | 13.7 | 43.9 | 108 | 1800 | 490 | 4.3 | 13.9 | < 10 | 4.7 |  | Not Active |  |  | 3.3
CCCCCc1cc(O)c2c(c1)O[C@]1(C2)[C@H](C)CCCC1(C)C | 27.5 | 37 | > 50 |  | > 50 | 1700 | > 50 | 32.3 | 102 | 4900 | 1300 | 39.7 | < 10 | < 10 | 6.4 | Not Active | Not Active |  |  | 
